Our source for the AC40 values is PubChem BioAssay AID720513 (Broad Institute, 2013).

Each structure is given as a SMILES string. Records with an inconclusive call do not appear. A value given as a limit tells only on which side of the number the result lay.

The assay concerns U2OS PGC1a acetylation AlphaLISA, overnight. Kind of assay: activators raising PGC1a acetylation in cells, dose response, cell-based, cherry-picked samples, set 6 (AID 720513).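 Further: cells made to overexpress flag tagged PGC1a plus GCN5 acetyltransferase by viral infection.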
For the molecule `CSCCC(c1nnnn1-c1c(C)cccc1C)N1CCC(n2c(=O)[nH]c3ccccc32)CC1` (centres undefined), the AC40 is 1.32 µM.
For `O=C(CN1CCC(n2nnc3cc(F)ccc32)CC1)NCc1ccco1`, the AC40 is 1.69 µM.
In the case of `Cc1csc(NC(=O)NC2(C(F)(F)F)Oc3ccccc3O2)n1` it was 6.24 µM.
For `C[C@@H]1CN([C@@H](C)CO)C(=O)c2c(c3ccccc3n2C)-c2ccccc2CO[C@@H]1CN(C)C(=O)Nc1ccc(F)cc1` the value was 7.76 µM.
In the case of `CCN(CC)CCOc1ccc(/C(=C(\Cl)c2ccccc2)c2ccccc2)cc1` it was 3.01 µM; in that of `CC(C)C(c1nnnn1Cc1ccccc1)N(Cc1ccco1)Cc1cccs1` (centres undefined), 0.907 µM.
With `Cc1c(C(=O)N2CCN(c3ccccn3)CC2)sc2ncnc(N3CCN(c4ccccc4)CC3)c12`, the AC40 is 10.9 µM.
For `CC(C)(C)c1ccc(NC(=O)N2CCN(c3ccc([N+](=O)[O-])cn3)CC2)cc1` the value was less than 0.16 µM; for `O=C1NCN(c2ccccc2)C12CCN(C(c1cccc3ccccc13)c1nnnn1C1CCCCC1)CC2` (centres undefined), 5.43 µM; for `COc1ccc(N(C(=O)c2snc(C(N)=O)c2N)C(C(=O)NC2CCCC2)c2ccco2)c(OC)c1` (centres undefined), 3.85 µM.
In the case of `C[C@H](CO)N1C[C@H](C)[C@H](CN(C)Cc2ccc(C(=O)Nc3ccccc3N)cc2)Oc2c(NC(=O)c3ccncc3)cccc2C1=O` it was 12 µM; in that of `Cc1ccccc1NC(=O)c1nc(S(C)(=O)=O)ncc1Cl`, 0.992 µM.
With `COC(=O)C(Nc1ccccc1Cl)(c1cc(C)c(O)c(C)c1)C(F)(F)F` (centres undefined), the AC40 was 0.641 µM.
For `COc1ccc(C2CC(=O)N(C)c3ccccc3S2)cc1` (centres undefined) the value was 6.61 µM; for `O=C(NCc1ccccc1)C(c1ccccc1)N(C(=O)c1csnn1)c1ccc(F)cc1` (centres undefined), 4.34 µM.
In the case of `COc1ccc(-c2nc(N)c(C#N)c(-c3cccnc3)c2C)cc1` it was 0.69 µM.
Consider `COc1ccc(N(C(=O)c2csnn2)C(C(=O)NC2CCCC2)c2cccs2)cc1` (centres undefined), for which the AC40 was 2.62 µM.
For `OC1CCCC1NCc1ccnc2cc(Cl)ccc12` (centres undefined) the value was 10.6 µM; for `Cc1cc(C)cc(N(CC(=O)NC2CC3CCC2C3)S(C)(=O)=O)c1` (centres undefined), 17.1 µM.
In the case of `Cc1cccc(CS(=O)(=O)c2ncc(Cl)c(C(=O)Nc3ccc(F)cc3)n2)c1` it was 1.56 µM; in that of `C[C@@H]1CN([C@H](C)CO)C(=O)c2c(c3ccccc3n2C)-c2ccccc2CO[C@@H]1CN(C)C(=O)Nc1ccccc1C(F)(F)F`, 3.71 µM; in that of `Nc1ccccc1Oc1ncc(C(F)(F)F)cc1Cl`, 7.04 µM.
Take `O=C1C=C(c2cc3ccccc3s2)CCC1`: the AC40 is 3.77 µM.
On to `CN(C)CC(O)c1ccc(C=Cc2ccc(Cl)cc2)cc1` (centres undefined), for which the AC40 was 3.19 µM.
For `O=C(c1cccs1)N1CCN(c2nnc(-c3ccccc3)c3ccccc23)CC1` the value was 1.65 µM; for `Cc1cc(C)c(S(=O)(=O)Nc2ccccc2-c2ccccc2)c(C)c1`, 3.95 µM; for `Cc1cc(C(=O)NNS(=O)(=O)c2ccccc2C(F)(F)F)nn1C(C)(C)C`, 1.04 µM.
In the case of `O=C(Nc1ccc(F)cc1)N1CCN(c2nc3ccccc3s2)CC1` it was 2.7 µM; in that of `C[C@@H]1CN([C@H](C)CO)C(=O)c2cc(N(C)C)ccc2O[C@@H](C)CCCCO[C@H]1CN(C)C(=O)Nc1ccccc1`, 10.6 µM.
Take `Cc1ccc(NC(=O)c2c(C(F)(F)F)nn(C)c2SCc2ccc(Cl)cc2)cc1C`: the AC40 was 5.5 µM.
In the case of `C[n+]1c2n(c3ccccc31)N=C(c1cc(C(C)(C)C)c(O)c(C(C)(C)C)c1)CS2` it was 3.5 µM; in that of `CCO[C@H]1OC(C(=O)Nc2ccccc2)=C[C@@H](c2csc3ccccc23)[C@@H]1CCCO`, 15.7 µM.
For `COC(=O)C[C@@H]1C[C@H]2c3cc(NC(=O)Nc4ccc(C(F)(F)F)cc4)ccc3O[C@H]2[C@H](CO)O1` the value was 8.45 µM; for `O=C(C(Cc1ccccc1)n1cccc1)N1CCN(c2ccccc2)CC1` (centres undefined), 7.54 µM; for `COc1ccc(C#Cc2c(-c3ccccc3)n(-c3ccccc3)c3ccc(CO)cc23)cc1`, 2.19 µM.
For `CCOC(=O)N1CCN(C(=O)C(NS(=O)(=O)c2cccc3nsnc23)c2ccccc2)CC1` (centres undefined) the value was 17.9 µM; for `CCCCC(=O)Nc1ccc(C(=O)NCCCn2ccnc2)cc1`, 0.269 µM.
In the case of `COc1ccc(Nc2nnc(C)c3ccccc23)cc1`, the AC40 is 5.12 µM.
Regarding `Cc1ccc2c(CN(Cc3ccccc3)Cc3ccccc3)cc(=O)oc2c1`, the AC40 is 6.06 µM.
In the case of `COc1ccc(Nc2nnc(-c3ccc(C(N)=O)cc3)c3ccccc23)cc1` it was 0.524 µM; in that of `C[C@H]1CN([C@@H](C)CO)C(=O)c2cccc(NC(=O)c3cnccn3)c2O[C@H]1CN(C)Cc1ccc(C(=O)Nc2ccccc2N)cc1`, less than 2.6 µM.
For `COc1ccc(S(=O)(=O)N2CC[C@@H]3[C@H](CO)Nc4ccc(-c5ccccc5F)cc4[C@@H]32)cc1` the value was 12.4 µM; for `COc1ccc(C2N(S(=O)(=O)c3ccccc3)CCN2S(=O)(=O)c2ccc(C)cc2)cc1` (centres undefined), 6.61 µM.
For `CCOC(=O)c1[nH]c(C)c(C(=O)Nc2cc(OC)ccc2OC)c1C` the value was 13 µM; for `O=C(CN1CCC(N2CCCCC2)CC1)N1CCCc2ccccc21`, 11.1 µM; for `COc1ccc(C(CNC(=O)c2cccc(N(C)C)c2)N2CCCC2)cc1` (centres undefined), 5.4 µM.
As for `O=S(=O)(NCc1ccccc1Br)c1ccccc1Br`, the AC40 was 1.68 µM.
For `Cc1cc(C(=O)NNS(=O)(=O)c2ccc(F)cc2)nn1C(C)(C)C` the value was 1.09 µM.
In the case of `CCOc1ccc(N(C)S(=O)(=O)c2cc(-c3cc(C)no3)ccc2C(C)C)cc1` it was 2.97 µM; in that of `O=C(NCc1ccccc1)N1CCC(n2cnc3cc(F)ccc32)CC1`, 1.89 µM; in that of `COc1ccc(OC)c(C(=O)/C=C/c2ccccc2C(F)(F)F)c1`, 8.62 µM.
Turning to `Cc1ccc(-n2cccn2)c(CN2CCCC(C(=O)c3sccc3C)C2)c1` (centres undefined), the AC40 was 9.08 µM.
In the case of `Cc1cccc(-c2ccc3[nH]c4c(c3c2)CCN2C[C@@H]([C@H](C)O)[C@@H](N(C)C(=O)NC3CCCCC3)C[C@@H]42)c1` it was 13.7 µM.
As to `CCOC(=O)c1nc(S(C)(=O)=O)ncc1Cl`, the AC40 is 1.65 µM.
In the case of `Cc1cc(S(=O)(=O)c2ccc([N+](=O)[O-])cn2)ccc1Br` it was 0.421 µM.
For `CS(=O)(=O)N(CC(=O)N1CCN(c2ccccc2)CC1)c1cccc(Br)c1` the value was 17.8 µM.
In the case of `CC(=O)c1ccc(N2CCN(c3ccc(S(=O)(=O)NCCN(C)C)cc3[N+](=O)[O-])CC2)cc1` it was 6.58 µM; in that of `O=C(NN1c2ccccc2CCc2ccccc21)c1ccccc1Br`, 4.84 µM.
Turning to `COc1ccc(CCC(=O)NCCS(=O)(=O)N2CCN(c3ccccc3)CC2)cc1`, the AC40 was 13.4 µM.
For `CC/C(=C(\c1ccc(O)cc1)c1ccc(OCCN(C)C)cc1)c1ccccc1` the value was 2.41 µM; for `O=C1NC(=Nc2ccccc2Cl)S/C1=C\c1cccc([N+](=O)[O-])c1O`, 10.6 µM.
In the case of `CN1c2ccccc2C2(C)CCCC3=Cc4cccc([N+](=O)[O-])c4OC312` (centres undefined), the AC40 was 0.48 µM.
In the case of `Cc1cc(Cn2nc(C(=O)NCc3cccc(C(F)(F)F)c3)cc2-c2ccccc2)on1` it was 5.81 µM; in that of `C[C@@H]1CN([C@H](C)CO)C(=O)c2c(c3ccccc3n2C)-c2ccccc2CO[C@@H]1CN(C)C(=O)Nc1cccc(C(F)(F)F)c1`, 10.5 µM.
